Values quoted from earlier work in patent US11065330B2, “Induction of antigen-specific tolerance by peripheral phagocytosis” (PLS-Design GmbH, priority 2014, dated 2021).
“Also recorded” adds a separate entry of the source. Read-outs that look alike come from different tables or passages of the source. Where no end group is shown, it is not given here.

Experiments:
[1] = target: murine CD22 (Mus musculus, UniProt P35329)
[2] = tested on: OVA-induced allergic asthma in mice; conditions: 10 ng with 100 μg OVA immunotherapy
[3] = tested on: NOD mice
[4] = tested on: Lyme arthritis and collagen-induced arthritis in mice; conditions: diet, 20 ng/mouse/day
[5] = tested on: EAE model; conditions: i.p. 5 μg/kg every 2 days
[6] = for solubility in 1:5 solution of ethanol:PBS: 1:5 ethanol:PBS, pH 7.2
[7] = tested on: human polymorphonuclear leukocyte (PMN) transendothelial migration; conditions: read-out: EC50, reduction of PMN transendothelial migration
[8] = tested on: mouse model of peritonitis; conditions: 100 ng dose
[9] = tested on: multiple sclerosis
[10] = tested on: IL-4 gene transcription; conditions: read-out: concentration for 50% inhibition
[11] = tested on: NF-kappa B translocation; conditions: read-out: concentration for 50% inhibition
[12] = tested on: phagocytes; conditions: for maximal migration of phagocytes, increase: at about 100 nM
[13] = tested on: isolated rat cardiomyocytes; set-up: dose or concentration left out as unconfirmed; conditions: preincubation 2-3 hours, GSM or exogenous NAC
[14] = tested on: peripheral blood T cells
[15] = tested on: ovalbumin-specific IgE and IgG1 responses
[16] = tested on: cystic fibrosis; conditions: oral 600 mg to 1000 mg three times daily, 4 weeks
[17] = tested on: intestinal ischaemia/reperfusion injury model; conditions: 10 mg/kg i.v., rats
[18] = not given; remark: listed apart in the source
[19] = tested on: rheumatoid arthritis; conditions: three months, on methotrexate
[20] = tested on: calcium metabolism; conditions: compared to 1,25-(OH)2D3
[21] = for time detectable in serum by HPLC: rats
[22] = tested on: psoriasis; conditions: more than 10 years clinical use
[23] = tested on: OVA-induced allergy in mice; conditions: topical calcipotriol, then transcutaneous OVA with CpG adjuvant
[24] = tested on: asthma exacerbation; conditions: six months, budesonide 800 μg/d and cholecalciferol 500 IU
[25] = tested on: alternative pathway of complement activation (C3) in sera from mice; conditions: read-out: IC50 of haemolytic activity
[26] = tested on: alternative pathway of complement activation (C3) in sera from rats; conditions: read-out: IC50 of haemolytic activity
[27] = tested on: alternative pathway of complement activation (C3) in sera from guinea pigs; conditions: read-out: IC50 of haemolytic activity
[28] = tested on: baboon model of Escherichia coli sepsis; conditions: 10 mg/kg i.v. bolus then 60 μg/kg/min infusion
[29] = tested on: NOD/Lt mice
[30] = human, in vivo
[31] = tested on: adjuvant arthritis
[32] = tested on: type 1 diabetes
[33] = tested on: IL-4/IL-13-mediated effects in murine model of allergy; conditions: 50 μg pre and post OVA, then 30 μg twice a day, day 1 to 8
[34] = tested on: OVA-induced allergic airway inflammation; conditions: intranasal 10 μg every fourth day, 3 weeks
[35] = 1.0 g/liter in drinking water, 8 days

Chain of murine CD22 (P35329 22-868): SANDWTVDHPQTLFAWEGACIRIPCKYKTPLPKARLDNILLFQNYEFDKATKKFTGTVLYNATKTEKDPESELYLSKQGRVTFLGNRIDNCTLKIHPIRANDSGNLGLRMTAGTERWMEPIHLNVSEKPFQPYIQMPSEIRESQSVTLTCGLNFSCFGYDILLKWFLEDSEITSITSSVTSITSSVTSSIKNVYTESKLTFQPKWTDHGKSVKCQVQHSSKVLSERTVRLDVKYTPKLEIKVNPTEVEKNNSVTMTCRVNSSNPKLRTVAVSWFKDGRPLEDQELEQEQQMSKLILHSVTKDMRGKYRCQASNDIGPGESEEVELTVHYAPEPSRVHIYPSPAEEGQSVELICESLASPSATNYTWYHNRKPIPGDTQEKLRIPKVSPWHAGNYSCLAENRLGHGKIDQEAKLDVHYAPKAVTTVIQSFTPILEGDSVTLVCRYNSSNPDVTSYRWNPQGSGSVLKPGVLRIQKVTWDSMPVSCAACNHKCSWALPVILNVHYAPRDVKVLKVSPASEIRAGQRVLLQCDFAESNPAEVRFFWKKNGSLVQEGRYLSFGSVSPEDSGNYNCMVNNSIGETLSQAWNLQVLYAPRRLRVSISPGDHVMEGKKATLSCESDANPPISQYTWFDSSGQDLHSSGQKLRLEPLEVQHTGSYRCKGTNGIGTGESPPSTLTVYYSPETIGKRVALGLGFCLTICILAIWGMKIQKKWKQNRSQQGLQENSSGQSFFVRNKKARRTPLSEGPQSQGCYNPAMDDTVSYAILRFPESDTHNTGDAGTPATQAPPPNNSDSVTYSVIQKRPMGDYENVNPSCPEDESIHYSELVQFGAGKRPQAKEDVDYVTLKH

Molecule: 9-biphenylacetyl-N-glycolylneuraminic acid-α2-6-galactose-β1-4-N-acetylglucosamine-β-ethylamine [6′-^BPANeuGc]
- affinity for murine CD22, fold higher than natural ligand NeuGcα2-6Galβ1-4GlcNAc-β-ethylamine [1]: 200 fold

Molecule: C=C1/C(=C\C=C2/CCC[C@]3(C)[C@@H]([C@H](C)CCCC(C)(C)O)CC[C@@H]23)C[C@@H](O)C[C@@H]1O [1,25-(OH)2D3, 1α,25-dihydroxyvitamin D3]
- airway hyper-responsiveness [2]: significantly inhibited airway hyper-responsiveness
- diabetes development [3]: prevented the development of diabetes; also recorded: prevented diabetes onset
- progression of arthritis and hypercalcemia [4]: effective in inhibiting the progression of arthritis without producing hypercalcemia
- treated mice in which appearance of paralysis was prevented [5]: 70%
- solubility in 1:5 solution of ethanol:PBS [6]: approx. 0.15 mg/ml
- solubility in ethanol [6]: approx. 50 mg/ml

Molecule: CC/C=C\C[C@@H](O)/C=C/C=C\C=C\C=C\[C@@H](O)[C@@H](O)C/C=C\CCC(=O)O [17(R)-Resolvin D1]
- EC50 [7]: ~0.03 µM
- maximal inhibition of leukocyte infiltration [8]: ~35%

Molecule: C=C1CC[C@H](O)C/C1=C/C=C1\CCC[C@]2(C)[C@@H]([C@H](C)CCCC(C)(C)O)CC[C@@H]12 [25-OH-D3]
- serum level to be kept to avoid toxicity (based on experiments in the rat): below 250 ng/ml
- serum level at which toxicity occurs (rat, in vivo): ≥ 500 ng/mL
- adverse effects ([9]; 1,000 to 40,000 IU/day): no adverse effects
- number of new lesions by MRI ([9]; oral 4,000-40,000 IU/day, 28 weeks): significant decrease in the number of new lesions

Molecule: CC(=O)Oc1ccccc1C(=O)O [ASA, acetylsalicylic acid]
- IC50 [10]: ~1000 µM
- IC50 [11]: ~3000 µM

Molecule: Nc1ncnc2c1ncn2[C@@H]1O[C@H](COP(=O)(O)OP(=O)(O)OP(=O)(O)O)[C@@H](O)[C@H]1O [ATP]
- concentration effecting maximal migration of phagocytes [12]: about 100 nM
- maximal migration of phagocytes, increase [12]: threefold

Molecule: CSC[C@H](NC(=O)CC[C@H](N)C(=O)O)C(=O)NCC(=O)O [GSM, S-Methylglutathione]
- protection against deleterious effects of TNF-alpha on contraction [13]: protected

Molecule: CC(=O)N[C@@H](CS)C(=O)O [NAC, N-acetyl-L-cysteine]
- cytotoxicity in resting T cells ([14]; 1 mM to 20 mM, 3 day period, seven donors): nontoxic
- T cell function and growth ([14]; 10 mM): effective enhancer of T cell function
- protection against deleterious effects of TNF-alpha on contraction [13]: not protected
- decrease of ovalbumin-specific IgE ([15]; 0.5 g/liter in drinking water): ~30%
- decrease of ovalbumin-specific IgG1 ([15]; 0.5 g/liter in drinking water): ~30%
- decrease of ovalbumin-specific IgE response [15, 35]: more than 70%
- decrease of ovalbumin-specific IgG1 response [15, 35]: more than 70%
- safety and efficacy of high doses [16]: safe and effective

Molecule: O=C([O-])c1ccccc1O.[Na+] [SA, sodium salicylate]
- solubility in water ([6]; 20° C.): 2000 µg/mL

Molecule: NC(N)=NCCC[C@H](NC(=O)COCC(c1ccccc1)c1ccccc1)C(=O)O [SB290157]
- blood pressure effect [17]: rapid and transient hypertension
- in vivo half-life [18]: short in vivo half-life

Molecule: O=c1ccn([C@@H]2O[C@H](COP(=O)(O)OP(=O)(O)OP(=O)(O)O)[C@@H](O)[C@H]2O)c(=O)[nH]1 [UTP]
- concentration effecting maximal migration of phagocytes [12]: about 100 nM
- maximal migration of phagocytes, increase [12]: threefold

Molecule: C=C1/C(=C\C=C2/CCC[C@]3(C)[C@@H]([C@H](C)CCCC(C)C)CC[C@@H]23)C[C@@H](O)C[C@@H]1O [alfacalcidiol]
- patients going into remission [19]: 45%
- patients with improvement of disease activity [19]: 89%

Molecule: C=C1/C(=C\C=C2/CCC[C@]3(C)[C@@H]([C@H](C)/C=C/[C@@H](O)C4CC4)CC[C@@H]23)C[C@@H](O)C[C@@H]1O [calcipotriol]
- effect on calcium metabolism, times less than 1,25-(OH)2D3 [20]: 100-200 times
- time detectable in serum by HPLC ([21]; i.v. 10 μg/kg): up to 5 min
- time detectable in serum by HPLC ([21]; i.v. 50 μg/kg): up to 10 min
- rate of clearance, times higher than for 1,25-(OH)2D3 ([21]; rat, in vivo): approximately 140 times
- systemic toxicity on topical use [22]: without systemic toxicity
- antigen-specific CD8+ T cell priming [23]: abolished antigen-specific CD8+ T cell priming
- solubility in 1:5 solution of ethanol:PBS [6]: approx. 0.15 mg/ml
- solubility in ethanol [6]: approx. 50 mg/ml

Molecule: C=C1CC[C@H](O)C/C1=C/C=C1\CCC[C@]2(C)[C@@H]([C@H](C)CCCC(C)C)CC[C@@H]12 [cholecalciferol]
- children experiencing asthma exacerbation [24]: 17%

Molecule: CC[C@H](C)[C@H](N)C(=O)N[C@H]1CSSC[C@@H](C(=O)N[C@H](C(N)=O)[C@@H](C)O)NC(=O)[C@H](CCCN=C(N)N)NC(=O)[C@H](Cc2cnc[nH]2)NC(=O)[C@H](Cc2cnc[nH]2)NC(=O)CNC(=O)[C@H](Cc2c[nH]c3ccccc23)NC(=O)[C@H](CC(=O)O)NC(=O)[C@H](CCC(N)=O)NC(=O)[C@H](C(C)C)NC(=O)[C@H](C(C)C)NC1=O [compstatin]
- procoagulant response and organ protection [28]: decrease the procoagulant response

Molecule: CC/C=C\C[C@H](O)/C=C/C=C\C=C\C=C\[C@@H](O)[C@@H](O)C/C=C\CCC(=O)O [resolvin D1]
- EC50 [7]: ~0.03 µM

Molecule: MT-hsp65: 65 kDa heat shock protein of Mycobacterium tuberculosis
- diabetes development ([29]; single i.p. 50 μg emulsified in IFA): developed within 30 days after the treatment diabetes
- diabetes development ([29]; single i.p. injection in PBS): did not cause the development of diabetes

Molecule: PMX53
- half-life ([18]; in vivo): 1.17 h
- safety and tolerability [30]: safe and well tolerated

Molecule: TFGLQLELT [nonapeptide 180-188]
- rats showing clinical symptoms of adjuvant arthritis during pretreatment ([31]; i.p. 100 μg in FIA, 35 days before induction): none of the rats
- rats completely protected against subsequently induced adjuvant arthritis ([31]; three times 100 μg in FIA before induction): 11 out of 16

Molecule: vitamin D
- relative risk of type 1 diabetes over the subsequent 30 years ([32]; doses of exactly 50 μg/day): 0.22
- relative risk of type 1 diabetes over the subsequent 30 years ([32]; doses of over 50 μg/day (2000 IU/d) during infancy): 0.14

B1: Q116D/Y119D: murine IL-4 double mutant inhibiting IL-4/IL-13-mediated effects (protein, UniProt P07750 21-140, looked up, variant Q116D Y119D)
Interleukin-4: HIHGCDKNHLREIIGILNEVTGEGTPCTEMDVPNVLTATKNTTESELVCRASKVLRIFYLKHGKTPCLKKNSSVLMELQRLFRAFRCLDSSISCTMNESKSTSLKDFLESLKSIMDMDDS
- humoral immune responses to OVA and allergic symptoms [33]: completely abrogated
- outcome versus SIT with OVA only [34]: did not produce significantly different results
